From US20250091982A1, “Pharmaceutical Composition, Methods of Use Thereof for Treating Cocaine Addiction, and Novel Use of Hausp K444R Point Mutant Mouse” (PHARWAR BIOTECHNOLOGY, INC. PTE. LTD., priority 2022, published 2025)

Tests used:
[1] = system: HAUSP levels in SH-SY5Y cells; assay: Western blot of HAUSP in cocaine-treated SH-SY5Y cells; details: cocaine 200 μM with inhibitor, 24 hr; for HAUSP levels decreased by cocaine in SH-SY5Y cells (western blot): FIG. 14C; for relative protein expression ratios of HAUSP normalized with β-actin: quantified with ImageJ, FIG. 14D
SIAH1 = molecular target: T1, SIAH1 (Homo sapiens, UniProt Q8IUQ4); assay: E3-ligase auto ubiquitination assay (K48-linked polyubiquitination of HAUSP mediated by SIAH1); assay type: biochemical; details: 37° C., 1 hour, Western blot with Ub-K48 antibody, compared to vehicle; FIG. 14A, 14B
T1 sequence (Q8IUQ4 1-282): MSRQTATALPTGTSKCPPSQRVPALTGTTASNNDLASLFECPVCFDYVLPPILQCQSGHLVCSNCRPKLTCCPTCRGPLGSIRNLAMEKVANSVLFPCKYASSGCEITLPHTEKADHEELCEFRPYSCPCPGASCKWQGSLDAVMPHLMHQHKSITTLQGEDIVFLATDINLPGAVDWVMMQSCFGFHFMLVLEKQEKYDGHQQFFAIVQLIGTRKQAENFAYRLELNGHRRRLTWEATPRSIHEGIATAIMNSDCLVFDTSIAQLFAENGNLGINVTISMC
Description: SIAH1 mediates the K48-linked polyubiquitination of HAUSP. Therefore, for the ubiquitination assay, SIAH1 was incubated in the solution (0.25 mg/1 ml, total 100 μg) containing 20 mM Tris-HCl buffer (pH 8.0), 100 mM NaCl, 1 mM DTT and 40% glycerol and HAUSP (50 μg) was in 50 mM HEPES pH 7.5, 100 mM NaCl, 1 mM TCEP (tris (2-carboxyethyl) phosphine) buffer. […] The E3-ligase auto ubiquitination assay was performed by E3 Ligase Auto-Ubiquitilylation Assay Kit (Abcam, ab139469, UK).

[2] = system: locomotion activity induced by cocaine; assay: Locomotion activity (open field test) of cocaine induced mice; assay type: in vivo; details: compound 10 mg/kg 10 mins before cocaine 25 mg/kg i.p.; FIGS. 12A to 12C
From the text: 8 mice from Preparation Example 2 were randomly chosen to conduct Locomotion Activity I. The open fields using white acrylic chambers measured 50 cm (length)×50 cm (width)×38 cm (height) were made from white high density and non-porous plastics. Once the Video Tracking software (ANY-maze, Stoelting Co, IL, USA) was opened, the cursor was moved to the “Single-Subject Tracking” option located under the “Data Acquisition” tab and single-clicked to open this option. The software package used in this protocol allows the tracking of up to 6 individual mice at one time. The mice were brought to open fields to acclimate to the procedure room for 30 minutes (min) prior to starting the test. The tracking plot of randomly chosen 6 mice was recorded and analyzed by ANY-maze software.
(§1) Conditioned place preference (CPP) is a classical conditioning paradigm used in behavioral neuroscience to study the rewarding and aversive properties of drugs or other stimuli. It involves associating a particular environment or location with the experience of a rewarding or aversive stimulus, such as drugs, food, or electric shock. In CPP experiment, mice were first trained to associate one compartment of a box and then, they were placed in the neutral compartment and allowed to freely explore both compartments, and animals' preference for one compartment over the other was measured. After vehicle/Compound 2-2 (10 mg/kg)/Compound 2-3 (10 mg/kg)/Compound 3-3 (10 mg/kg) treatment for 10 mins, the well-trained mice were administrated with cocaine (25 mg/kg, i.p.) for 30 mins. The content of the vehicle is 0.5% DMSO, 25% PEG-300, 4% Tween-80, and 70.5% saline. The locomotion activity experiment was the same as the method of open field test described in Experiment 2.

[3] = system: heart rate and blood pressure induced by cocaine; assay: Heart rate and blood pressure of cocaine induced mice; assay type: in vivo, C57BL/6JNar1 mice; details: cocaine 25 mg/kg/day i.p. three months, then compound 25 mg/kg/day three months; FIG. 15
Description: (§2) C57BL/6JNar1 mice of 6-months age were used in this Experiment. This Experiment included four groups: the normal control group (saline group), the cocaine+saline group, the cocaine+Compound 2-2 group, and the cocaine+Compound 3-3 group. There were 7 mice in the cocaine+Compound 2-2 group and 6 mice each in the rest of the groups. The normal control group received no experimental treatment. […] Heart rate, systolic blood pressure and mean blood pressure of all four groups were measured with a device (MK-2000ST, NP-NIBP Monitor for Mice & Rats, Muromachi, Japan) and the results thereof were shown in FIG. 15. Moreover, the Fr structure of all four groups was measured according to the method of Experiment 7 and the results thereof were shown in FIG. 16 and FIGS. 17A and 17B.

[4] = system: cocaine conditioned place preference; assay: Conditioned place preference (CPP) test induced by cocaine; assay type: in vivo, mice; details: compound 10 mg/kg 10 mins before cocaine 25 mg/kg i.p.; FIG. 12D
From the text: as §1

[5] = system: Fasciculus retroflexus (Fr) structure; assay: Fr structure of cocaine induced mice after treatment; assay type: in vivo, C57BL/6JNar1 mice; details: cocaine 25 mg/kg/day i.p. three months, then compound 25 mg/kg/day three months; for length of Fr diminished by cocaine treatment: FIG. 16, 17A; for volume of Fr diminished by cocaine treatment: FIG. 16, 17B
Description: as §2

[6] = system: lever press induced by cocaine; assay: Lever press test (cocaine self-administration); assay type: in vivo, mice; details: 10 mg/kg intraperitoneally 10 min prior to cocaine self-administration; for cumulative cocaine reinforcements: FIG. 13G; for latency to first response in mice treated with cocaine: FIG. 13H; for lever press frequencies induced by cocaine treatment: FIGS. 13A to 13F
Description: Mice were anesthetized with isoflurane (induction and maintenance at 4%-5%) for surgical implantation of a jugular vein catheter connected to a head-mounted entry port. Briefly, the right jugular vein was exposed, and the catheter tubing was inserted and secured to the vein. The catheter was passed under the skin to an incision on the head, and the port was secured to the skull with dental cement anchored by screws. Mice were given buprenorphine (0.05-0.10 mg/kg, intraperitoneal.) for analgesia and allowed to recover for 7-10 days before beginning self-administration. Catheter patency was maintained by daily infusion of 100 μl heparin (120 U/μl) through the catheter and treated with Cefazolin, 200 mg/kg, subcutaneously, to prevent bacterial infections.
The lever press test was done in extra wide mouse operant chambers with a modified top (Med Associates, VT, USA). The chamber contained a retractable lever, a food pellet receptacle connected to a pellet dispenser, with a stimulus light above the pellet receptacle, and contained a house light. Cocaine was delivered by a syringe pump located outside the chamber, and the drug delivery tubing was connected to the mice through a swivel (Instech, Plymouth Meeting, PA, USA) and the swivel arm connected on top of the chamber to allow free movement of the mice during self-administration. All the sessions were remotely operated and recorded by MED-PC V software (Med Associates, VT, USA). Mice were pre-trained with food through pressing the levers and were food-restricted during the study. After training, mice were provided ad libitum access to water and food.
Self-administration sessions took place once daily during the light-dark cycle for 14 consecutive days. Before starting the study, mice were allowed to acclimate to the housing for approximately 3 days. The availability of cocaine reward was indicated by illumination of the house light and pressing levers. […] Each infusion was paired with a cue (1 s illumination of the stimulus green light) followed by a 10-second time-out signaled by turning off the house light. […] Each chamber was operated under a 3-hour session, or until mice received 100 infusions (20 mg/kg) of cocaine (to prevent cocaine overdose). No treatment groups were implanted with a catheter and placed in the operant chambers with identical cues but not connected to the syringe pump and received no reward for pressing the active levers. Vehicle or inhibitor (Compound 2-2, Compound 2-3, or Compound 3-3) with a dosage of 10 mg/kg was injected intraperitoneally for 10 min prior to cocaine self-administration. The content of the vehicle is 0.5% DMSO, 25% PEG-300, 4% Tween-80, and 70.5% saline. Mice met criteria for acquisition of self-administration when they: (1) self-administered at least 30 infusions in a session; (2) >85% of responses were on the active […]; and (3) had no more than 20% variation in number of infusions between sessions. The lever press frequency and number within 3 hours indicate the cocaine addiction symptom.

[7] = system: Fasciculus retroflexus (Fr) structure; assay: Mouse brain analysis: Fr structure after cocaine treatment; details: wild-type mice, cocaine 25 mg/kg/day for three months, compared to control wild-type mice
Description: Cocaine treated mice were C57BL/6j mice treated with cocaine at 10 a.m. with a dosage of 25 mg/kg/day for three months while the control mice (Hausp^WT) and Hausp^K444R mice were treated with saline. All mice were housed under conditions of controlled humidity (55±10%) and temperature (22±2° C.), with a reversed light cycle in this experiment.
After the above treatments, all organs were obtained after mouse heart perfusion by saline, and fixed by 4% paraformaldehyde solution for 24 h for H&E, LFB, Silver, Masson's trichrome staining and immunohistochemistry (IHC). Fresh tissues were immediately homogenized in T-PER™ by tissue homogenizer (HT mini homogenizer, OPS Diagnostics LLC, USA) for Western blot analysis.
Mouse brains were processed following SHIELD processing protocol according to Park, Y. G. et al. 2019. Mice were perfused with ice-cold PBS and then with the SHIELD perfusion solution (ice-cold 1× PBS containing 4% (w/v) PFA and GE38 (polyglycerol 3-polyglycidyl ether) supernatant). Collected brains were incubated in the same perfusion solution at 4° C. for two days. […] Images were reconstructed to a multi-channel-z stack using Imaris file converter, and the regions of the whole brain, habenula region were masked and quantified using the surface function in Imaris software version 9.5.

## COCCNC(=O)c1ccc(Cl)cc1NC(=O)c1ccccc1C [Compound 2-2, 4-Chloro-N-(2-methoxyethyl)-2-(2-methylbenzamido) benzamide]
[1]
  HAUSP levels decreased by cocaine in SH-SY5Y cells (western blot): can restore
  relative protein expression ratios of HAUSP normalized with β-actin: can restore
SIAH1
  inhibition of K48-linked polyubiquitination of HAUSP mediated by SIAH1: can inhibit
[2]
  increased locomotion activity or increased distance traveled induced by cocaine treatment: decreased
[3]
  blood pressure induced by cocaine: decreased
  heart rate induced by cocaine: decreased
[4]
  time spent in cocaine paired compartments (CPP test): decreased
[5]
  length of Fr diminished by cocaine treatment: partially rescued
  volume of Fr diminished by cocaine treatment: partially rescued
[6]
  cumulative cocaine reinforcements: decreased
  latency to first response in mice treated with cocaine: increased
  lever press frequencies induced by cocaine treatment: decreased

## COCCNC(=O)c1ccc(Cl)cc1NC(=O)c1c(C)cc(C)cc1C [Compound 2-3, N-(5-Chloro-2-((2-methoxyethyl)carbamoyl)phenyl)-2,4,6-trimethylbenzamide]
[1]
  HAUSP levels decreased by cocaine in SH-SY5Y cells (western blot): can restore
  relative protein expression ratios of HAUSP normalized with β-actin: can restore
SIAH1
  inhibition of K48-linked polyubiquitination of HAUSP mediated by SIAH1: can inhibit
[2]
  increased locomotion activity or increased distance traveled induced by cocaine treatment: decreased
[4]
  time spent in cocaine paired compartments (CPP test): decreased
[6]
  cumulative cocaine reinforcements: decreased
  latency to first response in mice treated with cocaine: increased
  lever press frequencies induced by cocaine treatment: decreased

## COCCNC(=O)c1ccccc1NC(=O)c1c(C)cc(C)cc1C [Compound 3-3, N-(2-((2-Methoxyethyl)carbamoyl)phenyl)-2,4,6-trimethylbenzamide]
[1]
  HAUSP levels decreased by cocaine in SH-SY5Y cells (western blot): can restore
  relative protein expression ratios of HAUSP normalized with β-actin: can restore
SIAH1
  inhibition of K48-linked polyubiquitination of HAUSP mediated by SIAH1: can inhibit
[2]
  increased locomotion activity or increased distance traveled induced by cocaine treatment: decreased
[3]
  blood pressure induced by cocaine: decreased
  heart rate induced by cocaine: decreased
[4]
  time spent in cocaine paired compartments (CPP test): decreased
[5]
  length of Fr diminished by cocaine treatment: partially rescued
  volume of Fr diminished by cocaine treatment: partially rescued
[6]
  cumulative cocaine reinforcements: decreased
  latency to first response in mice treated with cocaine: increased
  lever press frequencies induced by cocaine treatment: decreased

## COC(=O)[C@H]1[C@@H](OC(=O)c2ccccc2)C[C@@H]2CC[C@H]1N2C [cocaine]
[7]; FIG. 10D
  diameter of Fr: decreased
[7]; FIG. 10E
  length of Fr: decreased
